{"source": "patent US12018059B2", "about": "“Human amylin analog polypeptides and methods of use” (Intarcia Therapeutics, Inc., priority 2018, dated 2024)", "note": "Positions of bridges follow the written chain, without caps; N, C: chain ends. Non-standard residues stand in square brackets, D forms with d. Residues, ends and D or L forms follow the SMILES beside them.", "data": [{"assay": "Pharmacokinetics, 3-hour intravenous infusion of linear (non-acylated) polypeptides", "design": "species or system Sprague-Dawley rats", "conditions": "rat, in vivo, iv, 0.1 mg/kg", "protocol": "Peptides were dissolved in sterile saline and administered as a 3-hour intravenous infusion to non-fasted male Sprague-Dawley rats (n=3 per group) via femoral vein cannula at a final dose of 0.100 mg/kg. […] Blood samples (approximately 250 μL) were collected for pharmacokinetic analysis via a jugular vein cannula at 0.25, 0.5, 1, 2, 3, 3.17, 3.33, 3.5, 4, 4.5, 5, and 6 hr post-start of infusion (long method) or at 1, 1.5, 2, 2.5, and 3 hr post-start of infusion (steady-state screening method). All samples were collected into microtainer tubes containing K2EDTA as anticoagulant and 25 μL of a protease inhibitor cocktail. Plasma was prepared by centrifugation and stored at −80° C. until analysis. The results of this analysis are shown in Table 9 and few exemplars in FIGS. 3a-3b.\nA 60 μL aliquot of each plasma sample was placed into to a 96-well plate. To each well was added 6 μL of 0.5% Tween-20. Plates were then vortexed mixed for 10 minutes at 1200 rpm before 180 μL of 0.1% TFA in 2:1 ethanol:acetonitrile containing an appropriate internal standard was added to each well. Plates were vortex mixed for 5 min at 1300 rpm, and then centrifuged for 10 min at 2844×g. Supernatants (180 μL) were placed into a clean 96-well plate and evaporated under a nitrogen stream at 45° C. Residues were reconstituted in 80 μL of 20% acetonitrile (aq) containing 0.1% formic acid.\nA […] aliquot of each plasma sample was diluted with […] of 10 mM ammonium acetate (pH 6.8) containing an appropriate internal standard and loaded onto an Oasis WCX microElution plate (Waters Corporation, Milford, MA) that had been pre-conditioned with […] of methanol and […] of deionized water. Samples were washed with […] of 5% ammonium hydroxide (aq) followed by […] of 20% acetonitrile in water. The analyte was eluted with […] of 5% formic acid in 75:25 acetonitrile:water. The eluent was dried under a nitrogen stream. Residues were reconstituted in 80 μL of 20% acetonitrile (aq) containing 0.1% formic acid.\nAll calibration standards were prepared in control rat plasma containing K2EDTA and protease inhibitor cocktail.\nSamples and standards were analyzed by TurbolonSpray™ UPLC-MS/MS using a system consisting of a CTC HTS PAL auto-injector (Leap, Carrboro, NC), an Agilent Infinity 1290 system with column oven (Palo Alto, CA), a Valco switching valve (Houston, TX), and either an AB Sciex API 5600 TripleTOF™ or Sciex API 4000QTrap mass spectrometer (Framingham, MA). Samples were injected onto a 2.1×50 mm reverse phase C18 analytical column, typically a Waters CORTECS UPLC C18+, 1.6 μm (Waters Corporation, Milford, MA) or similar. […] Initial conditions consisted of 90% A and 10% B. The organic component was increased to 95% B over a period of 3-4 minutes, depending on the peptide. Typical flow rates were 600 μL/min. The column temperature was held constant at 40 or 50° C. Peptides were quantified by monitoring one or more product ions produced from a multiply charged parent ion.", "units": {"clearance": "mL/min/kg"}, "values": [{"smiles": "CC[C@H](C)[C@H](NC(=O)[C@@H]1CCCN1C(=O)CNC(=O)[C@H](Cc1ccccc1)NC(=O)[C@H](CCC(=O)O)NC(=O)[C@H](CC(N)=O)NC(=O)[C@H](CO)NC(=O)[C@H](CO)NC(=O)[C@H](CCCCN)NC(=O)[C@@H](NC(=O)[C@H](CC(C)C)NC(=O)[C@H](Cc1ccccc1)NC(=O)[C@H](CC(N)=O)NC(=O)[C@H](CO)NC(=O)[C@H](CC(C)C)NC(=O)[C@H](CCCNC(=N)N)NC(=O)[C@H](CCC(N)=O)NC(=O)[C@@H](NC(=O)[C@H](C)NC(=O)[C@@H]1CSSC[C@H](NC(=O)[C@@H](N)CO)C(=O)N[C@@H](CC(N)=O)C(=O)N[C@@H]([C@@H](C)O)C(=O)N[C@@H](CO)C(=O)N[C@@H]([C@@H](C)O)C(=O)N1)[C@@H](C)O)C(C)C)C(=O)N[C@@H](CC(C)C)C(=O)N1CCC[C@H]1C(=O)N1CCC[C@H]1C(=O)N[C@H](C(=O)N[C@@H](CCCCN)C(=O)N[C@H](C(=O)NCC(=O)N[C@@H](CO)C(=O)N[C@@H](CCC(=O)O)C(=O)N[C@H](C(=O)N[C@@H](Cc1ccc(O)cc1)C(N)=O)[C@@H](C)O)C(C)C)[C@@H](C)O", "note": "[Compound A4] (H-SCNTSTCATQRLSNFLVKSSNEFGPILPPTKVGSETY-NH2; disulfide 2-7)", "clearance": 13.6}, {"smiles": "CC[C@H](C)[C@H](NC(=O)[C@@H]1CCCN1C(=O)CNC(=O)[C@H](Cc1ccccc1)NC(=O)[C@H](CCC(=O)O)NC(=O)[C@H](CC(N)=O)NC(=O)[C@H](CO)NC(=O)[C@H](CO)NC(=O)[C@H](CCCCN)NC(=O)[C@@H](NC(=O)[C@@H](CC(C)C)NC(=O)[C@H](Cc1ccccc1)NC(=O)[C@H](CC(N)=O)NC(=O)[C@H](C)NC(=O)[C@H](CC(C)C)NC(=O)[C@H](CCCNC(=N)N)NC(=O)[C@H](CCC(N)=O)NC(=O)[C@@H](NC(=O)[C@H](C)NC(=O)[C@@H]1CSSC[C@H](NC(=O)[C@@H](N)CO)C(=O)N[C@@H](CC(N)=O)C(=O)N[C@@H]([C@@H](C)O)C(=O)N[C@@H](CO)C(=O)N[C@@H]([C@@H](C)O)C(=O)N1)[C@@H](C)O)C(C)C)C(=O)N[C@@H](CC(C)C)C(=O)N1CCC[C@H]1C(=O)N1CCC[C@H]1C(=O)N[C@H](C(=O)N[C@@H](CCCCN)C(=O)N[C@H](C(=O)NCC(=O)N[C@@H](CO)C(=O)N[C@@H](CCC(=O)O)C(=O)N[C@H](C(=O)N[C@@H](Cc1ccc(O)cc1)C(N)=O)[C@@H](C)O)C(C)C)[C@@H](C)O", "note": "[Compound A6] (H-SCNTSTCATQRLANF[dL]VKSSNEFGPILPPTKVGSETY-NH2; disulfide 2-7; N-terminus assumed)", "clearance": 26.4}, {"smiles": "CC[C@H](C)[C@H](NC(=O)[C@@H]1CCCN1C(=O)CNC(=O)[C@H](Cc1ccccc1)NC(=O)[C@H](CCC(=O)O)NC(=O)[C@H](CC(N)=O)NC(=O)[C@H](CO)NC(=O)[C@H](CO)NC(=O)[C@H](CCCCN)NC(=O)[C@@H](NC(=O)[C@H](CC(C)C)NC(=O)[C@H](Cc1ccc(O)cc1)NC(=O)[C@H](CC(N)=O)NC(=O)[C@H](C)NC(=O)[C@H](CC(C)C)NC(=O)[C@H](CCCNC(=N)N)NC(=O)[C@H](CCC(N)=O)NC(=O)[C@@H](NC(=O)[C@H](C)NC(=O)[C@@H]1CSSC[C@H](NC(=O)[C@@H](N)CO)C(=O)N[C@@H](CC(N)=O)C(=O)N[C@@H]([C@@H](C)O)C(=O)N[C@@H](CO)C(=O)N[C@@H]([C@@H](C)O)C(=O)N1)[C@@H](C)O)C(C)C)C(=O)N[C@@H](CC(C)C)C(=O)N1CCC[C@H]1C(=O)N1CCC[C@H]1C(=O)N[C@H](C(=O)N[C@@H](CCCCN)C(=O)N[C@H](C(=O)NCC(=O)N[C@@H](CO)C(=O)N[C@@H](CCC(=O)O)C(=O)N[C@H](C(=O)N[C@@H](Cc1ccc(O)cc1)C(N)=O)[C@@H](C)O)C(C)C)[C@@H](C)O", "note": "[Compound A15] (H-SCNTSTCATQRLANYLVKSSNEFGPILPPTKVGSETY-NH2; disulfide 2-7)", "clearance": 14.4}]}]}
